Literature values as cited in patent publication US7407975B2, “Epothilone derivatives, method for producing same and their pharmaceutical use” (priority 1997, dated 2008).

Test system: P-glycoprotein-forming multiresistant tumor lines
Settings: in comparison to taxol

| Compound | activity against P-glycoprotein-forming multiresistant tumor lines |
| --- | --- |
| C/C(=C\c1csc(C)n1)[C@@H]1C[C@@H]2O[C@@H]2CCC[C@H](C)[C@H](O)[C@@H](C)C(=O)C(C)(C)[C@@H](O)CC(=O)O1 [Epothilone A, epothilone A] | significantly higher activity |
| C/C(=C\c1csc(C)n1)[C@@H]1C[C@@H]2O[C@]2(C)CCC[C@H](C)[C@H](O)[C@@H](C)C(=O)C(C)(C)[C@@H](O)CC(=O)O1 [Epothilone B, epothilone B] | significantly higher activity |
